{"source": "paper PMC9909341", "about": "“TLQP-21 is a low potency partial C3aR activator on human primary macrophages” (Frontiers in Immunology, 2023)", "key": {"BMDM (murine C3aR)": {"test_system": "BMDM (murine C3aR)", "format": "cell-based, mouse", "experimental": "(§1) Mouse bone marrow-derived macrophages (BMDMs) were obtained and cultured as previously described ([20], [21]). All experiments using mice were approved by the University of Queensland animal ethics committee. Wild-type and C3aR^-/- mice on a C57BL/6J genetic background (n = 3) were sacrificed by cervical dislocation. The tibia was removed and sterilised. Upon removal of both epiphyses, bone marrow cells were harvested by flushing the central cavity with complete RPMI-1640 medium using a 10 ml syringe attached to a 25-gauge needle. Cells were then cultured in complete RPMI-1640 medium (containing 10 % FBS, 100 IU/ml penicillin, 100 μg/ml streptomycin) supplemented with 100 ng/ml recombinant human macrophage colony stimulating factor on 10 mm square dishes. Mature adherent macrophages for assays were harvested on day 6-7 by gentle scraping.\nLigand-induced ERK1/2 phosphorylation was assessed using the AlphaLISA Surefire Ultra p-ERK1/2 (Thr202/Tyr204) kit (PerkinElmer, Melbourne, Australia) following the manufacturer’s protocol as previously described ([18], [20], [22]). Briefly, CHO-K1, CHO-C3aR, CHO-C5aR1, HMDMs (50,000/well) or BMDMs (90,000/well) were seeded in tissue culture-treated 96-well plates (Corning, Corning, USA) for 24 h and serum-starved overnight. All ligand dilutions were prepared in serum-free medium (SFM) containing 0.1% BSA. For inhibition assays, cells were pre-treated with the following ligands (5 µM SB290157, or respective concentrations of hC3a, mC3a, hC5a, hTLQP-21, and mTLQP-21) or the solvent-only control for 30 min before agonist (hC3a, hTLQP-21 and mTLQP-21) addition. The concentration and identity of the ligands are described in detail in the figure legends. For stimulation, cells were treated with ligands at the indicated concentrations for 10 min at RT and then immediately lysed using AlphaLISA lysis buffer on a microplate shaker (450 rpm, 10 min). For the detection of phospho-ERK1/2 content, cell lysate (5 μL/well) was transferred to a 384-well ProxiPlate (PerkinElmer, Melbourne, Australia) and added to the donor and acceptor reaction mix (2.5 μL/well, respectively), followed by a 2-h incubation at RT in the dark. On a Tecan Spark 20M (Tecan, Männedorf, Switzerland), the plate was measured using standard AlphaLISA settings.\nAll experiments were conducted in triplicates and repeated on three separate occasions unless otherwise specified. Data was analysed using GraphPad software (Prism 9.1). Data from each individual repeat was normalised accordingly (as specified in the figure legends) before being combined and expressed as mean ± standard error of the mean (S.E.M.) unless otherwise described. For all dose-response studies, logarithmic concentration-response curves were plotted using combined data and analysed to determine the respective potency values. Statistical analysis was performed using two-way ANOVA with Dunnett’s post hoc analysis. Donor-matched comparisons were made for HMDM experiments. Differences were deemed significant when p < 0.05.\nFigure 4 TLQP-21 triggers ERK signalling through C3aR in murine bone marrow-derive macrophages. BMDMs (90,000/well) from wildtype mice (A) or with C3aR knockout mice (B), were serum-starved overnight and then stimulated with respective ligands at the indicated concentrations for 10 min. The phospho-ERK1/2 content in the cell lysate was measured and normalised to the medium only-treated levels before being combined. Data represent mean ± S.E.M. of triplicate measurements using cells from 3 mice (n = 3)."}, "HMDMs": {"test_system": "HMDMs", "assay": "homologous desensitisation control in HMDMs", "format": "cell-based, human", "conditions": "pre-treatment 10 nM hC3a, 10 μM hTLQP-21 or mTLQP-21 for 30 min, then same ligand 10 min", "source_text": "HMDMs were generated and cultured as previously described ([20]), with experiments approved by The University of Queensland Human Research Ethics Committee. Briefly, human buffy coat blood from anonymous healthy donors was obtained through the Australian Red Cross Blood Service (Brisbane, Australia). Human CD14+ monocytes were isolated from blood using Lymphoprep density centrifugation (STEMCELL, Melbourne, Australia) followed by CD14+ MACS magnetic bead separation (Miltenyi Biotec, Sydney, Australia). […]\n(§2) Ligand-induced ERK1/2 phosphorylation was assessed using the AlphaLISA Surefire Ultra p-ERK1/2 (Thr202/Tyr204) kit (PerkinElmer, Melbourne, Australia) following the manufacturer’s protocol as previously described ([18], [20], [22]). […] On a Tecan Spark 20M (Tecan, Männedorf, Switzerland), the plate was measured using standard AlphaLISA settings.\nFigure 3 Agonistic and antagonistic activities of hTLQP-21 and mTLQP-21 in human monocyte-derived macrophages. […] The phospho-ERK1/2 content in the cell lysate was measured and normalised to the maximum hC3a/hC5a-induced levels before being combined. […]"}, "C3aR-deficient BMDMs": {"test_system": "C3aR-deficient BMDMs", "assay": "phospho-ERK1/2 assay in C3aR-deficient BMDMs", "format": "cell-based, mouse", "conditions": "10 min stimulation; n = 3 mice", "experimental": "as §1, with “Mature adherent macrophages for assays were harvested on day 6-7 by gentle scraping.” left out\nas §2\nFigure 4 TLQP-21 triggers ERK signalling through C3aR in murine bone marrow-derive macrophages. […] The phospho-ERK1/2 content in the cell lysate was measured and normalised to the medium only-treated levels before being combined. […]"}}, "data": [{"substance": "C3a: Table 1 label: human C3a in CHO-C3aR and HMDM, recombinant mouse C3a in BMDM", "values": [{"measurement": "% C3a activity ± SE, BMDM", "setting": "BMDM (murine C3aR); relative to mC3a, wild-type BMDMs", "value": "100 ± 4.1", "unit": "%"}, {"measurement": "logEC50 ± SE (pERK1/2), BMDM", "setting": "BMDM (murine C3aR); wild-type BMDMs, 10 min stimulation at RT, C3a is recombinant mouse C3a", "value": "-8.1 ± 0.1"}, {"measurement": "EC50", "setting": "BMDM (murine C3aR); wild-type C57BL/6J BMDMs, 90,000/well, 10 min stimulation at RT, AlphaLISA p-ERK1/2, n = 3 mice, C3a is recombinant mouse C3a, read-out: EC50 (pERK1/2), BMDM", "value": 8.4, "unit": "nM"}]}, {"substance": "hC3a: purified (plasma-derived) human C3a, purchased from Merck", "values": [{"measurement": "homologous desensitisation of ERK activity", "setting": "HMDMs", "value": "significantly dampened the subsequent ERK activity triggered by these ligands"}, {"measurement": "ERK signalling in C3aR-deficient BMDMs", "setting": "C3aR-deficient BMDMs", "value": "Neither hC3a, nor the TLQP-21 peptides caused any significant ERK signalling activity in C3aR-deficient cells"}]}]}
